In patent US6399335B1, “γ-phosphoester nucleoside triphosphates” (Advanced Research and Technology Institute, Inc., priority 1999, dated 2002):

Tests used:
[1] = target: T7 DNA-dependent RNA polymerase (Escherichia phage T7, UniProt P00573); test: Colorimetric RNA synthesis / PNP release assay; assay type: biochemical
Protocol: Production of the PNP-NTP analogs. PNP-GTP and PNP-ATP are made in one high yielding reaction from commercially available starting materials (Scheme 1). When the nucleotide analog is used in RNA synthesis, the β and γ phosphates are released (as pyrophosphate) with the attached PNP. While this compound is colorless, the enzyme alkaline phosphatase rapidly hydrolyzes the pyrophosphates to release PNP, which, at the pH of the polymerase reaction, has a yellow color that absorbs maximally at […]. [drawing 4] […]
PNP-NTPs are useful as continuous reporters for RNA polymerase activity. To simplify the components, transcription reactions were performed in the presence of alkaline phosphatase, a homodeoxycytidylate template that directs the incorporation of only guanylates (named WV-15C), PNP-GTP, and T7 RNA polymerase. The use of homopolymers is well accepted in assessing the activities of viral RNA polymerases, including the HCV RdRp (Lohman et al., 1997. J. Virol., 71, 8416). The reaction was monitored in a spectrometer at […], the maximum absorbance for PNP. […] There were several negative controls in this experiment, all of which yielded minimal PNP release: 1) a reaction without T7 RNA polymerase; 2) a reaction that lacked the essential cofactor, Mg^2+; 3) a reaction that contained homothymidylate (WV-15T), rather than WV-15C. […]

[2] = Stability of PNP-NTPs in plasma (PNP release, absorbance at 405 nm)
Description: (§1) To test the effect of more complex, biologically relevant mixtures of enzymes on PNP-NTP stability, blood was collected and centrifuged to remove cells and collect the plasma.

[3] = target: RdRp of bovine viral diarrhea virus (Bovine viral diarrhea virus, UniProt P19711); test: RNA synthesis assay; assay type: biochemical; conditions: compared with T7 polymerase and brome mosaic virus RdRp results
Chain of RdRp of bovine viral diarrhea virus (P19711 3270-3988): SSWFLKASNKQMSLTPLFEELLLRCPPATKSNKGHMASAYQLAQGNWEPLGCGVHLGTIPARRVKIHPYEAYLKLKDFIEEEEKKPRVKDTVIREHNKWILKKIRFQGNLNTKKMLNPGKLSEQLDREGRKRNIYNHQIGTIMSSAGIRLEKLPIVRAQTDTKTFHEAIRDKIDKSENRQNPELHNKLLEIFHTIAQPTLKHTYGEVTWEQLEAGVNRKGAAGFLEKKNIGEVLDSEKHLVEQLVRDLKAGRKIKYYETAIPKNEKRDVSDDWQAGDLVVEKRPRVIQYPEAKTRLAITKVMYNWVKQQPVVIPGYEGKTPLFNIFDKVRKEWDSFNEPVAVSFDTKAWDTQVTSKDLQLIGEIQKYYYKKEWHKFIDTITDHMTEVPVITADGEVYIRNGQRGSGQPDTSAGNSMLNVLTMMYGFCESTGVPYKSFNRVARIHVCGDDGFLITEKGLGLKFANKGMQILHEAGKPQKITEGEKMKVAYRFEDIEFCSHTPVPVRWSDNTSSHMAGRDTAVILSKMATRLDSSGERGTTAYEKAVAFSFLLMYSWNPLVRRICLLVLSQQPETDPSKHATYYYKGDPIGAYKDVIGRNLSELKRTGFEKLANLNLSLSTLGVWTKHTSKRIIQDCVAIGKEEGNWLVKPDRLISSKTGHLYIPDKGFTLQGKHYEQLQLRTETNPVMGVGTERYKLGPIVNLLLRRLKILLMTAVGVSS
Description: (§2) PNP-NTPs are useful reporters for the activities of a variety of RNA polymerases. […] PNP release was also observed during RNA synthesis by the SP6 RNA polymerase.

brome mosaic virus RdRp = brome mosaic virus RdRp (Brome mosaic virus, UniProt P03594); test: RNA synthesis assay; assay type: biochemical
Chain of brome mosaic virus RdRp (P03594 whole entry): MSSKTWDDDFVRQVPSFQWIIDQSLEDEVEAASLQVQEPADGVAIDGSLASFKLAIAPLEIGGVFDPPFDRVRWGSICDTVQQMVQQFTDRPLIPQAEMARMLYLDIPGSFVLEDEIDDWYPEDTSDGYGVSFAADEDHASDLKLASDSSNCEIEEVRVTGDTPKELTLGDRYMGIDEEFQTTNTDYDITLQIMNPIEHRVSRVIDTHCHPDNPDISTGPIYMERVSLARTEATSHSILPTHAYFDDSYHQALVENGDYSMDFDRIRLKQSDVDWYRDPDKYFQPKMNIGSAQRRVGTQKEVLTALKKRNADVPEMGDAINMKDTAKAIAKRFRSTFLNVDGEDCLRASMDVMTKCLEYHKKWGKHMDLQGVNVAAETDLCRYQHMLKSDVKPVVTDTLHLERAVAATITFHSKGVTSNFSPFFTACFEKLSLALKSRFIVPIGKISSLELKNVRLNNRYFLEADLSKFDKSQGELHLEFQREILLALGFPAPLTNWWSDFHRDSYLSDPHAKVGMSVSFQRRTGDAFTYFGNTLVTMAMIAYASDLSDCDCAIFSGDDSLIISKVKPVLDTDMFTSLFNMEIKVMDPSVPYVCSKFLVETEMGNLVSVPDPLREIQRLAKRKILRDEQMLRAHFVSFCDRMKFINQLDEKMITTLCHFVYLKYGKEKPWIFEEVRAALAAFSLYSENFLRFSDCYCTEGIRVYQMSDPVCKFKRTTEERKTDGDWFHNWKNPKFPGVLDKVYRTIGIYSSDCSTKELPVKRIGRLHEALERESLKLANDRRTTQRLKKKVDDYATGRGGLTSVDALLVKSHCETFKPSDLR
Chain of brome mosaic virus RdRp (P03588 whole entry, further chain): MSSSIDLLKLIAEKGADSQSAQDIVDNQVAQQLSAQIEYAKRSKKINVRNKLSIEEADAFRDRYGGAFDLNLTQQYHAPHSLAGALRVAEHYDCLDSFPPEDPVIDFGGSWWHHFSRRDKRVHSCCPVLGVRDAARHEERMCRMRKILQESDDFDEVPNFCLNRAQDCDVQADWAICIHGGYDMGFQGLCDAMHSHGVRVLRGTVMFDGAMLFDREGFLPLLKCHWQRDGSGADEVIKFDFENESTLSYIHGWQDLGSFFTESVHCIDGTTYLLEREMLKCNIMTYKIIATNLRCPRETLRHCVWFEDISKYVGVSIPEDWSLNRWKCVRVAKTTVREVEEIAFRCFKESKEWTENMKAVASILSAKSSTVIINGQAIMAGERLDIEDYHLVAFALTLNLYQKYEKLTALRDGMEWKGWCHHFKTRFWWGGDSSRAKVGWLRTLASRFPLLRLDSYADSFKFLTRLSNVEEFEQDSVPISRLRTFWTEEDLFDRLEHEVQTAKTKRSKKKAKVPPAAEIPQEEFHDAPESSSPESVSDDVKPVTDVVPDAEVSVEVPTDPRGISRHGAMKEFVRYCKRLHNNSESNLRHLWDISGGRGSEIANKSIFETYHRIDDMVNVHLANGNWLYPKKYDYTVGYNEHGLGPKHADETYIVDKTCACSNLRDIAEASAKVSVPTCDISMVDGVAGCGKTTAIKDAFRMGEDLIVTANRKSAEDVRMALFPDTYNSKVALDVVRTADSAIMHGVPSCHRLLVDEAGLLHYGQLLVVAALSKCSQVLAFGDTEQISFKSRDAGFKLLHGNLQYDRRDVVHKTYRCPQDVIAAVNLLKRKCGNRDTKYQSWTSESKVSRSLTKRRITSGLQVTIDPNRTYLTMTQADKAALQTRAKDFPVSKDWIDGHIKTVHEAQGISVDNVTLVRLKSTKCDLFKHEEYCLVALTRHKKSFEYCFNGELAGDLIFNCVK
Description: as §2

alkaline phosphatase = conditions: incubation with alkaline phosphatase, without T7 RNA polymerase
Description: as §1

Chain of T7 DNA-dependent RNA polymerase (P00573 whole entry): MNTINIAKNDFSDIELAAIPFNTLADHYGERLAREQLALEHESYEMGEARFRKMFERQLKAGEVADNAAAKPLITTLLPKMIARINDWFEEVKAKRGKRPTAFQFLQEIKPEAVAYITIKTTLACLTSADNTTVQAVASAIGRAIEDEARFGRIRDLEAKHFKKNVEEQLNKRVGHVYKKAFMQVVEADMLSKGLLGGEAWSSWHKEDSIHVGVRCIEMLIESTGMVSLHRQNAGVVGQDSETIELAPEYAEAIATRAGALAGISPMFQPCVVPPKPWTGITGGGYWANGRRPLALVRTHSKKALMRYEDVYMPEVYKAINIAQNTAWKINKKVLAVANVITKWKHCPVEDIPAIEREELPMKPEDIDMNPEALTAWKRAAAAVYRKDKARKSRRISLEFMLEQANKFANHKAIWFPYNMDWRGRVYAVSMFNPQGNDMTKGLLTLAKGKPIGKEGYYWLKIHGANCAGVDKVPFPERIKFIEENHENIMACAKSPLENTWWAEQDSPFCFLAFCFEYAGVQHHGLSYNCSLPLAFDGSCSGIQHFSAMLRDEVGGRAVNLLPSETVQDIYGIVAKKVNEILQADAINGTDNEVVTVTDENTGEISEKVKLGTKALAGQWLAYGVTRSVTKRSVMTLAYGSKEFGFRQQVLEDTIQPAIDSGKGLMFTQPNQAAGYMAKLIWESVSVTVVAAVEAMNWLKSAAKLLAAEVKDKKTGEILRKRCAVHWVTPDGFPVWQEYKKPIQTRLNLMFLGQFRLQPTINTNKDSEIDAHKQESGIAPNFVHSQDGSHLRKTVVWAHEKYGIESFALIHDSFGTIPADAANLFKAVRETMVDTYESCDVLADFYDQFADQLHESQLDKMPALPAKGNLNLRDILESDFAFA

SMILES | increase in absorbance at 405 nm ([1]; homothymidylate template) | trends in plasma reactions ([2]; WV-15T template, compared with PNP-GTP results) | substrate for the polymerase [1] | increase in absorbance due to PNP release ([1]; alkaline phosphatase, WV-15C homodeoxycytidylate template, monitored at 405 nM) | RNA synthesis directed when used in place of GTP ([1]; compared with normal GTP) | absorbance higher than background ([1]; complete transcription reaction with cognate template, 3 h after start) | absorbance vs background ([1]; ten minutes after start, alkaline phosphatase, WV-15C template, 405 nM) | RNA synthesis directed when used in place of GTP [3] | substrate for the polymerase (brome mosaic virus RdRp) | RNA synthesis directed when used in place of GTP (brome mosaic virus RdRp; compared with normal GTP) | absorbance at 405 nm ([2]; plasma to 10% final volume, 7 h incubation) | PNP levels ([2]; plasma with alkaline phosphatase, polymerase and noncognate template, 7 hours) | PNP release / resistance to phosphatases (alkaline phosphatase)
Nc1ncnc2c1ncn2[C@@H]1O[C@H](COP(=O)(O)OP(=O)(O)OP(=O)(O)Oc2ccc([N+](=O)[O-])cc2)[C@@H](O)[C@H]1O [PNP-ATP, Adenosine-5′-(γ-4-nitrophenyl)triphosphate] | linear increase | Identical trends | – | – | – | – | – | – | – | – | – | – | –
Nc1nc2c(ncn2[C@@H]2O[C@H](COP(=O)(O)OP(=O)(O)OP(=O)(O)Oc3ccc([N+](=O)[O-])cc3)[C@@H](O)[C@H]2O)c(=O)[nH]1 [PNP-GTP, Guanosine-5′-(γ-4-nitrophenyl)triphosphate] | – | – | suitable substrate | linear over a two-hour period | levels similar to reactions containing normal GTP | > 7 fold | absorbance at levels distinctly above background | Identical results | suitable substrate | levels similar to reactions containing normal GTP | did not increase the absorbance at 405 nm | increased PNP levels slightly | did not result in PNP release
